From PubChem BioAssay AID743425 (Vanderbilt Specialized Chemistry Center, 2014)
Activity calls are given as the source filed them. No rule for the calls is given here.

Columns and labels:
[1] = target: Metabotropic glutamate receptor 8 (Homo sapiens) (UniProt O00222); experiment: mGlu8 positive allosteric modulator potency, dose response, rat receptor, calcium (AID 743425); settings: rat mGlu8, Fluo-4 calcium, glutamate EC20 potentiation
[2] = target: Metabotropic glutamate receptor 8 (Rattus norvegicus) (UniProt P70579); experiment: as above; settings: rat mGlu8, Fluo-4 calcium, glutamate EC20 potentiation; active compounds read high
Metabotropic glutamate receptor 8 (Rattus norvegicus), sequence (P70579 whole entry, looked up): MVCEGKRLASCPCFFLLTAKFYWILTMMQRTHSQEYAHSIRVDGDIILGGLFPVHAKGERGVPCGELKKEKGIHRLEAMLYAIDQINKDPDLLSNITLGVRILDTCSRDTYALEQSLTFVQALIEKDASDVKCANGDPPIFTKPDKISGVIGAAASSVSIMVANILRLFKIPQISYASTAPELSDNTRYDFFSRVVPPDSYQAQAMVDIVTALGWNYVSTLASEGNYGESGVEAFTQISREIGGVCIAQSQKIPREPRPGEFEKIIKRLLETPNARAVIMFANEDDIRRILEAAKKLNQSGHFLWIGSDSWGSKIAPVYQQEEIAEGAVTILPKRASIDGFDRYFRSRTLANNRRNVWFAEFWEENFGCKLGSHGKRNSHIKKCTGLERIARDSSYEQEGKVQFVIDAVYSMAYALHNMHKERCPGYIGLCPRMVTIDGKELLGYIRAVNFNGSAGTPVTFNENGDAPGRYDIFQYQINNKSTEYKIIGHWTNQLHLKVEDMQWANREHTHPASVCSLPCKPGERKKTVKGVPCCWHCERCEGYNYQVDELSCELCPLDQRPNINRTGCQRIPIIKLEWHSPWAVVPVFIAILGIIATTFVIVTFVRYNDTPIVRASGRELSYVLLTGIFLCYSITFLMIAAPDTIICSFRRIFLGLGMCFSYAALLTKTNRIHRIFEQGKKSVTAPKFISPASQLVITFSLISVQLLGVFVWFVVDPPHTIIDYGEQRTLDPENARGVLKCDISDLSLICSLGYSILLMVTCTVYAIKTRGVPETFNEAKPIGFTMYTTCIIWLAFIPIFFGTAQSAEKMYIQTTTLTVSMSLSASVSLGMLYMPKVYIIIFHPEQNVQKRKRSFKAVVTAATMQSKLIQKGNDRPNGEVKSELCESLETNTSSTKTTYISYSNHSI

Metabotropic glutamate receptor 8 (Homo sapiens), sequence (O00222 whole entry, looked up): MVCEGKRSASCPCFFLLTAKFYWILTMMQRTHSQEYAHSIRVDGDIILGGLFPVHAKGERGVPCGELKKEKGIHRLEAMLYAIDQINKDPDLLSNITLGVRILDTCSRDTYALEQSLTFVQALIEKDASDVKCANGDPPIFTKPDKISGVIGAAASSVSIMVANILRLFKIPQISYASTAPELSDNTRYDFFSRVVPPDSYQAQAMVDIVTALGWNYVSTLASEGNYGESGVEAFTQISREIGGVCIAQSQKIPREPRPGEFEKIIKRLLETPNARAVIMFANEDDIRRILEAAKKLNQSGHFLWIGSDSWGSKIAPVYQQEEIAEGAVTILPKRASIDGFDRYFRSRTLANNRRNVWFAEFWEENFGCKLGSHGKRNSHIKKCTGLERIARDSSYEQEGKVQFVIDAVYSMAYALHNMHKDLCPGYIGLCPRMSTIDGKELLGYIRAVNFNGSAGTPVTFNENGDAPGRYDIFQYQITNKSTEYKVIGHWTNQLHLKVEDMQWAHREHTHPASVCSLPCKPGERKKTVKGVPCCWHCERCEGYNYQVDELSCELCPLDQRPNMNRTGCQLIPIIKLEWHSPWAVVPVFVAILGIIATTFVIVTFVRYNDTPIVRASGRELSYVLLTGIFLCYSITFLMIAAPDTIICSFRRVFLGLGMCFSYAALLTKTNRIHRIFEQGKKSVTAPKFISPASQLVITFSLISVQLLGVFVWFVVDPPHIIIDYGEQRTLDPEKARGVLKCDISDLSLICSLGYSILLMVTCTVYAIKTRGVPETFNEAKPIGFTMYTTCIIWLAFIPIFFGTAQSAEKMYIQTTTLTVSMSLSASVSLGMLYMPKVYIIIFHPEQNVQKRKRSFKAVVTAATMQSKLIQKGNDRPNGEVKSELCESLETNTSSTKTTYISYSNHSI

EC50 [1] | % glutamate max [2] | SMILES
3.16 µM |  | CC(=O)Nc1ccc(SCC(=O)c2cc(C)n(-c3ccccc3F)c2C)cc1
3.16 µM |  | COC(=O)c1ccc(-n2c(C)cc(C(=O)CSCc3cccc(C)c3)c2C)cc1
0.23 µM |  | COc1ccc(CSCC(=O)c2cc(C)n(-c3ccc(OC(F)F)cc3)c2C)cc1
3.44 µM |  | CC(=O)Nc1ccc(SCC(=O)c2cc(C)n(CC3CCCO3)c2C)cc1 (stereo not drawn)
3.5 µM |  | CC(=O)Nc1ccc(OCC(=O)c2cc(C)n(-c3ccc(OC(F)F)cc3)c2C)cc1
1.6 µM |  | COC(=O)c1ccc(-n2c(C)cc(C(=O)CSCc3ccc(OC)cc3)c2C)cc1
10 µM |  | COC(=O)c1ccc(-n2c(C)cc(C(=O)COc3ccc(OC(C)=O)cc3)c2C)cc1
1.6 µM |  | CC(=O)Nc1ccc(SCC(=O)c2cc(C)n(CCc3cccs3)c2C)cc1

Further lines, the compound ahead of its results:

SMILES | EC50 [1] | % glutamate max [2]
CCOc1ccc(-n2c(C)cc(C(=O)CSCc3cccc(C)c3)c2C)cc1 | 3.16 µM | 
CCOc1ccc(-n2c(C)cc(C(=O)CSc3ccc(OC)cc3)c2C)cc1 | 3.16 µM | 
COC(=O)c1ccc(-n2c(C)cc(C(=O)CNc3ccc(C(=O)O)cc3)c2C)cc1 |  | inactive
CC(=O)Nc1ccc(SCC(=O)c2cc(C)n(CC3COc4ccccc4O3)c2C)cc1 (stereo not drawn) | 1.14 µM | 
COc1ccc(SCC(=O)c2cc(C)n(-c3ccc(OC(F)F)cc3)c2C)cc1 | 3.16 µM | 
CCOc1ccc(-n2c(C)cc(C(=O)CSCc3ccc(OC)cc3)c2C)cc1 | 3.16 µM | 
CC(=O)Nc1ccc(SCC(=O)c2cc(C)n(-c3ccc(S(N)(=O)=O)cc3)c2C)cc1 | 3.16 µM | 
COC(=O)c1ccc(-n2c(C)cc(C(=O)CSc3ccc(N(C)C(C)=O)cc3)c2C)cc1 | 3.3 µM | 
COC(=O)c1ccc(-n2c(C)cc(C(=O)COc3ccc(NC(C)=O)cc3)c2C)cc1 | 3.4 µM | 
COC(=O)c1ccc(-n2c(C)cc(C(=O)COc3cccc(N(C)C)c3)c2C)cc1 |  | inactive
CC(=O)Nc1ccc(SCC(=O)c2cc(C)n(-c3nc(C)cs3)c2C)cc1 | 10 µM | 
CCn1c(C)cc(C(=O)CSc2ccc(NC(C)=O)cc2)c1C | 10 µM | 
CC(=O)Nc1ccc(SCC(=O)c2cc(C)n(-c3cccc(F)c3)c2C)cc1 | 1.5 µM | 
COC(=O)c1ccc(-n2c(C)cc(C(=O)CSc3ccc(NC(C)=O)cc3)c2C)cc1 | 0.93 µM | 
Cc1ccc(CSCC(=O)c2cc(C)n(-c3ccc(OC(F)F)cc3)c2C)cc1 | 3.16 µM | 
